This test addresses T1, APOL1 (Homo sapiens, UniProt O14791).
T1 sequence (O14791 1-398 S342G/I384M): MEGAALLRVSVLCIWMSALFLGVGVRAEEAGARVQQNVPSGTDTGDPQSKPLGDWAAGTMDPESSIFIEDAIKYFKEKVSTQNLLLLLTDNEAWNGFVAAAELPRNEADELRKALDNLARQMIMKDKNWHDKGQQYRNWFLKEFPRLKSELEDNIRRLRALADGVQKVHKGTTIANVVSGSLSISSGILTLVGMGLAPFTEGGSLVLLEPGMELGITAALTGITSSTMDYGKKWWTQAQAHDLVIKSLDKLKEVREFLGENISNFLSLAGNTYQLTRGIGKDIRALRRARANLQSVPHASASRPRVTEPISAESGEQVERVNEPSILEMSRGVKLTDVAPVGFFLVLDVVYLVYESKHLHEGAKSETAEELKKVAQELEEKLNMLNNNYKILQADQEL
The test is described as follows: MultiTox-Fluor Multiplex Cytotoxicity Assay in tet-inducible APOL1 T-REx-HEK293 cells (cell rescue, ratio of dead to live cells). The format is cell-based. As to conditions: tet-inducible transgenic APOL1 T-REx-HEK293 cell lines, 50 ng/mL tet, 24 hours; read-out: IP50 (i.e., IC50 for cell proliferation). The gist of the method: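 T-REx-HEK293 cells with tet-inducible APOL1 were treated with compound (10 μM top, 10-point 3-fold dilution, duplicate) plus 50 ng/mL tetracycline for 24 h at 37° C, in DMEM with 2% tet-free FBS. MultiTox-Fluor protease signals gave a dead/live ratio, normalized to no tet (100% viability) and tet alone (0%).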

Results on 58 compounds are retold here after US20250171459A1, “2-METHYL-4',5'-DIHYDROSPIRO[PIPERIDINE-4,7'-THIENO[2,3-C]PYRAN] DERIVATIVES AS INHIBITORS OF APOL1 AND METHODS OF USING SAME” (Vertex Pharmaceuticals Incorporated, priority 2022, published 2025).

For the compound `CCc1cc2c(s1)CCO[C@@]21CCN(Cc2cnc(OCC(C)(C)N)nc2)[C@@H](C)C1` [Compound 208], the IC50 is less than 100 nM.

As for `CCc1cc2c(s1)CCO[C@@]21CCN(Cc2cnc(N[C@H]3CCCC[C@@H]3O)nc2)[C@@H](C)C1` [Compound 209], the IC50 is less than 100 nM.

Turning to `CCc1cc2c(s1)CCO[C@@]21CCN(Cc2cnc(NC34CCC(CO)(C3)C4)nc2)[C@@H](C)C1` [Compound 210], the IC50 is less than 100 nM.

Regarding `CCc1cc2c(s1)CCO[C@@]21CCN(Cc2ccc(N[C@@H](C)C(C)(C)O)nc2)[C@@H](C)C1` [Compound 211], the IC50 is less than 100 nM.

`CCc1cc2c(s1)CCO[C@@]21CCN(Cc2ccc(N[C@H]3COC[C@@H]3O)nc2)[C@@H](C)C1` [Compound 212]: the IC50 is less than 100 nM.

As for `CCc1cc2c(s1)CCO[C@@]21CCN(Cc2cnc(N[C@@H](C)C(C)(C)O)nc2)[C@@H](C)C1` [Compound 213], the IC50 is less than 100 nM.

Take `CCc1cc2c(s1)CCO[C@@]21CCN(Cc2ccc(N[C@@H](CO)[C@@H](C)O)nc2)[C@@H](C)C1` [Compound 214]: the IC50 is less than 100 nM.

With `CCc1cc2c(s1)CCO[C@@]21CCN(Cc2cnc(OCC3(N)CCOC3)nc2)[C@@H](C)C1` (stereo partly shown) [Compound 215], the IC50 is less than 100 nM.

Consider `CCc1cc2c(s1)CCOC21CCN(Cc2ccc(NC3CN(S(C)(=O)=O)C3)nc2)[C@@H](C)C1` (stereo partly shown) [Compound 216], for which the IC50 is less than 100 nM.

In the case of `CCc1cc2c(s1)CCO[C@@]21CCN(Cc2cnc(NCC(O)CO)nc2)[C@@H](C)C1` (stereo partly shown) [Compound 217], the IC50 was less than 100 nM.

`CCc1cc2c(s1)CCO[C@@]21CCN(Cc2cnc(NC3CNC(=O)C3)nc2)[C@@H](C)C1` (stereo partly shown) [Compound 218]: the IC50 was less than 100 nM.

For the compound `CCc1cc2c(s1)CCO[C@@]21CCN(Cc2cnc(N[C@H]3CCC[C@H]3CO)nc2)[C@@H](C)C1` [Compound 219], the IC50 is less than 100 nM.

As for `CCc1cc2c(s1)CCO[C@@]21CCN(Cc2cnc(N[C@@H]3C(=O)NC[C@H]3O)nc2)[C@@H](C)C1` [Compound 220], the IC50 is less than 100 nM.

For the compound `CCc1cc2c(s1)CCO[C@@]21CCN(Cc2cnc(NCCN3CCNC3=O)nc2)[C@@H](C)C1` [Compound 221], the IC50 is less than 100 nM.

Turning to `CCc1cc2c(s1)CCO[C@@]21CCN(Cc2cnc(NC(CO)CO)nc2)[C@@H](C)C1` [Compound 222], the IC50 is less than 100 nM.

With `CCc1cc2c(s1)CCO[C@@]21CCN(Cc2cnc(N[C@@H]3CCCC[C@H]3O)nc2)[C@@H](C)C1` [Compound 223], the IC50 is less than 100 nM.

Regarding `CCc1cc2c(s1)CCO[C@@]21CCN(Cc2cnc(NC(C)(CC)CO)nc2)[C@@H](C)C1` (stereo partly shown) [Compound 224], the IC50 was less than 100 nM.

As for `CCc1cc2c(s1)CCO[C@@]21CCN(Cc2cnc(N[C@@H](C)C(=O)NC)nc2)[C@@H](C)C1` [Compound 225], the IC50 is less than 100 nM.

Turning to `CCc1cc2c(s1)CCO[C@@]21CCN(Cc2cnc(N[C@@H](CO)[C@H](C)O)nc2)[C@@H](C)C1` [Compound 226], the IC50 is less than 100 nM.

Regarding `CCc1cc2c(s1)CCO[C@@]21CCN(Cc2cnc(OCC3(N)CCCCC3)nc2)[C@@H](C)C1` [Compound 227], the IC50 was less than 100 nM.

As for `CCc1cc2c(s1)CCO[C@@]21CCN(Cc2ccc(NC(C)(C)CO)nc2)[C@@H](C)C1` [Compound 228], the IC50 was less than 100 nM.

For the compound `CCc1cc2c(s1)CCO[C@@]21CCN(Cc2cnc(N[C@@H](CO)[C@@H](C)O)nc2)[C@@H](C)C1` [Compound 229], the IC50 was less than 100 nM.

In the case of `CCc1cc2c(s1)CCO[C@@]21CCN(Cc2cnc(NCCN(CCO)CCO)nc2)[C@@H](C)C1` [Compound 230], the IC50 is less than 100 nM.

For the compound `CCc1cc2c(s1)CCO[C@@]21CCN(Cc2cnc(NCC(O)C(F)(F)F)nc2)[C@@H](C)C1` (stereo partly shown) [Compound 231], the IC50 fell in the range of 100 to 500 nM.

For the compound `CCc1cc2c(s1)CCO[C@@]21CCN(C2COCC2O)[C@@H](C)C1` (stereo partly drawn) [Compound 232, 4-[(2′S,4R)-2-ethyl-2′-methyl-spiro[6,7-dihydrothieno[3,2-c]pyran-4,4′-piperidine]-1′-yl]tetrahydrofuran-3-ol], the IC50 was less than 100 nM.

In the case of `CCc1cc2c(s1)CCO[C@@]21CCN(C2COCC2O)[C@@H](C)C1` (stereo partly drawn) [Compound 233, 4-[(2′S,4R)-2-ethyl-2′-methyl-spiro[6,7-dihydrothieno[3,2-c]pyran-4,4′-piperidine]-1′-yl]tetrahydrofuran-3-ol], the IC50 lay within 100 to 500 nM.

Take `CCc1cc2c(s1)CCO[C@@]21CCN(C2CCCC2O)[C@@H](C)C1` (stereo partly shown) [Compound 234]: the IC50 is less than 100 nM.

Regarding `CCc1cc2c(s1)CCO[C@@]21CCN(CC2(O)CCOCC2)[C@@H](C)C1` [Compound 235], the IC50 fell in the range of 100 to 500 nM.

In the case of `CCc1cc2c(s1)CCO[C@@]21CCN(CC(C)(C)O)[C@@H](C)C1` [Compound 236], the IC50 was 100 to 500 nM.

As to `CCc1cc2c(s1)CCO[C@@]21CCN(C[C@@H](C)O)[C@@H](C)C1` [Compound 237], the IC50 was in the range of 100 to 500 nM.

`CCc1cc2c(s1)CCO[C@@]21CCN(CC(O)CC(F)(F)F)[C@@H](C)C1` (stereo partly shown) [Compound 238]: the IC50 lay within 100 to 500 nM.

`CCc1cc2c(s1)CCO[C@@]21CCN(CCO)[C@@H](C)C1` [Compound 239]: the IC50 lay within 100 to 500 nM.

`CCc1cc2c(s1)CCO[C@@]21CCN(CC(O)C(N)=O)[C@@H](C)C1` (stereo partly shown) [Compound 240]: the IC50 lay within 100 to 500 nM.

As to `CCc1cc2c(s1)CCO[C@@]21CCN(CC(O)C(F)(F)F)[C@@H](C)C1` (stereo partly shown) [Compound 241], the IC50 was 100 to 500 nM.

In the case of `CCc1cc2c(s1)CCO[C@@]21CCN(CC(C)O)[C@@H](C)C1` (stereo partly shown) [Compound 242], the IC50 lay within 100 to 500 nM.

Regarding `CCc1cc2c(s1)CCO[C@@]21CCN(CC(O)C(F)(F)F)[C@@H](C)C1` (stereo partly shown) [Compound 243], the IC50 lay in the range of 100 to 500 nM.

As to `CCc1cc2c(s1)CCO[C@@]21CCN(CC(O)CC(F)(F)F)[C@@H](C)C1` (stereo partly shown) [Compound 244], the IC50 lay in the range of 100 to 500 nM.

For the compound `CCc1cc2c(s1)CCO[C@@]21CCN(C2CCCC2O)[C@@H](C)C1` (stereo partly shown) [Compound 245], the IC50 lay in the range of 100 to 500 nM.

For `CCc1cc2c(s1)CCO[C@@]21CCN(C[C@H](O)c2ccccc2)[C@@H](C)C1` [Compound 246], the IC50 was less than 100 nM.

For the compound `CCc1cc2c(s1)CCO[C@@]21CCN(CC(O)c2ccc(F)cc2)[C@@H](C)C1` (stereo partly shown) [Compound 249], the IC50 is less than 100 nM.

With `CCc1cc2c(s1)CCO[C@@]21CCN(CC(O)c2ccc(F)c(F)c2)[C@@H](C)C1` (stereo partly shown) [Compound 253], the IC50 fell in the range of 100 to 500 nM.

`CCc1cc2c(s1)CCO[C@@]21CCN(CC(O)c2ccccc2Cl)[C@@H](C)C1` (stereo partly shown) [Compound 254]: the IC50 is less than 100 nM.

For `CCc1cc2c(s1)CCO[C@@]21CCN(CC2(O)CCS(=O)(=O)CC2)[C@@H](C)C1` [Compound 257], the IC50 fell in the range of 100 to 500 nM.

For `CCc1cc2c(s1)CCO[C@@]21CCN(Cc2cnn(CCS(=O)(=O)NC)c2)[C@@H](C)C1` [Compound 264, 2-[4-[[(2′S,4R)-2-ethyl-2′-methyl-spiro[6,7-dihydrothieno[3,2-c]pyran-4,4′-piperidine]-1′-yl]methyl]pyrazol-1-yl]-N-methyl-ethanesulfonamide], the IC50 is less than 100 nM.

Take `CCc1cc2c(s1)CCO[C@@]21CCN(Cc2cn[nH]c2)[C@@H](C)C1` [Compound 265]: the IC50 was less than 100 nM.

As for `CCc1cc2c(s1)CCO[C@@]21CCN(Cc2cnn(CC(C)(CO)CO)c2)[C@@H](C)C1` [Compound 266], the IC50 is less than 100 nM.

On to `CCc1cc2c(s1)CCO[C@@]21CCN(Cc2cnn(C)c2)[C@@H](C)C1` [Compound 267], for which the IC50 is less than 100 nM.

`CCc1cc2c(s1)CCO[C@@]21CCN(Cc2cnn(CCS(C)(=O)=O)c2)[C@@H](C)C1` [Compound 268]: the IC50 is less than 100 nM.

As to `CCc1cc2c(s1)CCO[C@@]21CCN(Cc2cnn(CCO)c2)[C@@H](C)C1` [Compound 269], the IC50 is less than 100 nM.

Take `CCc1cc2c(s1)CCO[C@]21CCN(Cc2cnn(C)c2)[C@H](C)C1` [Compound 270]: the IC50 was in the range of 100 to 500 nM.

`CCc1cc2c(s1)CCO[C@]21CCN(Cc2cnn(CCS(C)(=O)=O)c2)[C@@H](C)C1` [Compound 271]: the IC50 is less than 100 nM.

Turning to `CCc1cc2c(s1)CCO[C@@]21CCN(Cc2cnn(CCS(C)(=O)=O)c2)[C@H](C)C1` [Compound 272], the IC50 lay within 100 to 500 nM.

`CCc1cc2c(s1)CCO[C@]21CCN(Cc2cnn(CCS(C)(=O)=O)c2)[C@H](C)C1` [Compound 273]: the IC50 fell in the range of 100 to 500 nM.

`CCc1cc2c(s1)CCO[C@@]21CCN(Cc2ccc(NS(C)(=O)=O)cc2)[C@@H](C)C1` [Compound 274]: the IC50 was less than 100 nM.

Regarding `CCc1cc2c(s1)CCO[C@@]21CCN(CCC(F)(F)F)[C@@H](C)C1` [Compound 275], the IC50 was 500 to 1000 nM.

With `CCc1cc2c(s1)CCO[C@@]21CCN(CC(C)C)[C@@H](C)C1` [Compound 276], the IC50 was 500 to 1000 nM.

`CCc1cc2c(s1)CCO[C@@]21CCN(C)[C@@H](C)C1` [Compound 277]: the IC50 was 500 to 1000 nM.

As for `CCc1cc2c(s1)CCO[C@@]21CCN(CCOC)[C@@H](C)C1` [Compound 278, (2′S,4R)-2-ethyl-1′-(2-methoxyethyl)-2′-methyl-spiro[6,7-dihydrothieno[3,2-c]pyran-4,4′-piperidine]], the IC50 was in the range of 100 to 500 nM.
